In patent US5192799A, “Coumaran group containing amine compounds and their acid addition salts and quaternary ammonium salts and the use thereof as anti arrhythmic agents and as psychotropic agents” (Mitsui Petrochemical Industries, Ltd., priority 1987, dated 1993):
Read-outs that look alike come from different tables or passages of the source.

Assays:
in vivo = conditions: mouse, in vivo, 24 hours after administration, male ddY mice
Description: By using male ddY-strain 5-week old mice (3 to 4 per group), the compounds of general formula (1) were each administered orally or intraperitoneally as a solution in saline or as a suspension in methyl cellulose, and 24 hours after the administration, the toxicity of the compounds was evaluated.

[1] = test system: right ventricle (effective refractory period); test: Activity on ERP of the right ventricle; format: in vivo, adult mongrel dog; conditions: Canis lupus familiaris, read-out: ERP % (ERP prolonging activity)
Description: The pharmacological effects of the compounds of this invention represented by general formula (1) were studied. By using the heart of an adult mongrel dog, the activity of the compounds of general formula (1) were tested in vitro and in vivo. The heart of an anaethetized dog was extracted and suspended in a chamber at 37° C. in Tyrode's solution. The drug was added to Tyrode's solution being perfused through the heart specimen, and electrophysiological effects of the drug on cardiac action potential duration (APD) and maximum rate of depolarization were studied. An anaethetized dog was cut open at the chest. […] In an anaethetized and open-chested adult mongrel dug, a silver-silver chloride electrode was sutured to the right ventricle, and ventricular pacing was performed at a stimulation interval of 400 msec for a duration time of 4 msec, twice diastolic threshold. Then, a small amount of alcohol was injected through the sinus artery to extinguish the pacemaker activity, and under ventricular pacing, ERP was measured. Ten stimulations were taken as one train, and the interval between trains when the response to the first stimulation disappeared was defined as ERP. […] ERP before drug administration (intravenously or intraduodenally) was taken as 100%, and ERP prolonging activity of the drugs was expressed by %.

Purkinje fiber = test: Effect on APD (APD75, field-stimulated right ventricular free wall); format: cell-based, adult mongrel dog; conditions: for activation at 1 µg/mL / activation at 3 µg/mL / activation at 10 µg/mL: Canis lupus familiaris, purkinje, 20 min, read-out: APD75 % (percent change in APD75)
Description: The pharmacological effects of the compounds of this invention represented by general formula (1) were studied. By using the heart of an adult mongrel dog, the activity of the compounds of general formula (1) were tested in vitro and in vivo. The heart of an anaethetized dog was extracted and suspended in a chamber at 37° C. in Tyrode's solution. The drug was added to Tyrode's solution being perfused through the heart specimen, and electrophysiological effects of the drug on cardiac action potential duration (APD) and maximum rate of depolarization were studied. An anaethetized dog was cut open at the chest.
An adult mongrel dog was anaethetized with intravenous administration of pentobarbital, 30 mg/kg. The heart was quickly removed, and the right ventricular free wall was dissected in the Tyrode's solution. The right ventricular free wall was fixed within an incubator at 37° C., and field stimulation at 1 Hz was carried out. Intracellular potentials were measured by piercing glass microelectrodes (10-20 megaohms) into the Purkinje fiber and the wave form of cardiac action potential drawn on an oscilloBraun tube via an amplifier was analyzed by a computer. Value of APD was obtained at 75% of full repolarization (APD75). The drug was added to Tyrode's solution (20 ml) perfused through the specimen. The effect of the drug was expressed by a percent change in APD75 after incubation for 20 minutes with the control value of APD before application of the drug being taken as 100%.

[2] = iv, 0.1 mg/kg i.v., ERP before drug = 100%
[3] = iv, 0.3 mg/kg i.v., ERP before drug = 100%
[4] = iv, 1 mg/kg i.v., ERP before drug = 100%
[5] = iv, 3 mg/kg i.v., ERP before drug = 100%
[6] = dose 1 μg/ml, 20 minutes incubation, 37° C., 1 Hz, control before drug = 100%
[7] = dose 3 μg/ml, 20 minutes incubation, 37° C., 1 Hz, control before drug = 100%
[8] = dose 10 μg/ml, 20 minutes incubation, 37° C., 1 Hz, control before drug = 100%

Row | Compound | LD50 at 24 h (in vivo; po, LD50 p.o., p.o.) [mg/kg] | change in vivo at 0.1 mg/kg [1, 2] [%] | change in vivo at 0.3 mg/kg [1, 3] [%] | change in vivo at 1 mg/kg [1, 4] [%] | activation at 1 µg/mL (Purkinje fiber; [6]) [%] | activation at 3 µg/mL (Purkinje fiber; [7]) [%] | activation at 10 µg/mL (Purkinje fiber; [8]) [%] | also measured
1 | CC(C)N(CCCOc1ccc2c(c1)OCC2=O)C(C)C [Compound 116] | > 300 | 3 | 7 | 9 | 14 | 38 | 44 | change in vivo at 3 mg/kg [1, 5]: 9%
2 | CCCCN(CCCOc1ccc2c(c1)OCC2=O)CC(C)C [Compound 128] | > 300 |  |  |  | 9 | 18 |  | 
3 | CC(C)CN(CCCOc1ccc2c(c1)OCC2=O)CC(C)C [Compound 132] | > 300 | 2.4 ± 2.4 | 2.4 ± 2.4 | 4.8 ± 4.8 | 7 | 18 | 21 | change in vivo at 3 mg/kg [1, 5]: 4.8 ± 4.8%
4 | C=CCN(CCCOc1ccc2c(c1)OCC2=O)C1CCCCC1 [Compound 160] | > 300 |  |  |  | 0 | 7 | 11 | 
5 | CCN(CCCOc1ccc2c(c1)OCC2=O)CC1CCCO1 (stereo not shown) [Compound 184] | ~300 | 4.3 ± 2.2 | 6.3 ± 3.4 | 6.3 ± 3.4 |  | 16 | 31 | 
6 | CCN(CCCCCCO)CCCOc1ccc2c(c1)OCC2=O [Compound 188] | > 300 |  |  |  | 17 | 19 | 19 | 
7 | CCCCCCCN(CC)CCOc1ccc2c(c1)OCC2=O [Compound 196] | ~300 | 5 | 5 | 18 | 7 | 10 | 11 | 
8 | CCCCCN(CC)CCCCOc1ccc2c(c1)OCC2=O [Compound 208] | ~300 |  |  |  | 0 | 5 | 9 | 
9 | CCCCCCCN(CC)CCCCOc1ccc2c(c1)OCC2=O [Compound 212] | 300 to 600 | 7.1 ± 3.4 | 7.1 ± 3.4 | 13.8 ± 3.6 | 4 | 8 |  | change in vivo at 3 mg/kg [1, 5]: 13.8 ± 3.6%
10 | CCCCCCCN(CC)CC(O)COc1ccc2c(c1)OCC2=O.Cc1ccc(S(=O)(=O)O)cc1 (stereo not shown) [Compound 216, 6-[3-(N-ethyl-N-heptylamino)-2-hydroxypropyloxy]coumaran-3-one p-toluenesu lfonate] | 300 to 600 |  |  |  |  |  |  | change in vivo at 0.1 mg/kg ([1]; iv): 8%; change in vivo at 0.3 mg/kg ([1]; iv): 8%; change in vivo at 1 mg/kg ([1]; iv): 8%; change in vivo at 3 mg/kg ([1]; iv): 8%; activation at 1 µg/mL (Purkinje fiber): 13%; activation at 3 µg/mL (Purkinje fiber): 17%
11 | CCCCCCCN(CC)CCCOc1ccc2c(c1OC)OCC2=O [Compound 244] | ~300 | 0 | 9 | 9 | 6 | 9 | 11 | change in vivo at 3 mg/kg [1, 5]: 17%
12 | CCCCCCC[N+](CC)(CC)CCCOc1ccc2c(c1)OCC2=O.[Br-] [Compound 286, (3-oxo-6-coumaranoxypropyl)diethylheptyl ammonium bromide] | 300 to 1000 | 5.7 ± 0.3 | 15.7 ± 5.5 | 15.7 ± 5.5 | 17 | 29 |  | LD50 at 24 h (in vivo; ip, LD50 i.p., i.p.): 100 to 500 mg/kg; change in vivo at 3 mg/kg [1, 5]: 17.7 ± 7.3%; change in vivo at 0.1 mg/kg ([1]; 0.1 mg/kg i.d., ERP before drug = 100%): 0%; change in vivo at 0.3 mg/kg ([1]; 0.3 mg/kg i.d., ERP before drug = 100%): 0%; change in vivo at 1 mg/kg ([1]; 1 mg/kg i.d., ERP before drug = 100%): 10%; change in vivo at 3 mg/kg ([1]; 3 mg/kg i.d., ERP before drug = 100%): 19%
13 | CCCCCCC[N+](CC)(CC)CCCOc1ccc2c(c1)OCC2O (stereo not shown) [Compound 470] | > 300 | 0 | 0 | 2 | 13 | 16 | 20 | change in vivo at 3 mg/kg [1, 5]: 8%
14 | CCCCCCC[N+](CC)(CC)CCCOc1cccc2ccc(=O)oc12 [Compound 632] | > 300 |  |  |  |  | 44 | 18 | 
15 | O=C1COc2cc(OCCCN3CCCCC3)ccc21 [Compound 1110] | > 300 |  |  |  |  |  |  | APD75 % (percent change in APD75) (Purkinje fiber; [7]): 10%; APD75 % (percent change in APD75) (Purkinje fiber; [8]): 20%
16 | O=C1COc2cc(OCCCN3CCCC4CCCCC43)ccc21 (stereo not shown) [Compound 1158] | > 300 |  |  |  |  | 10 | 13 | 
17 | CC[N+]1(CCCOc2ccc3c(c2)OCC3=O)CC(C)OC(C)C1 (stereo not shown) [Compound 1171] | > 300 |  |  |  | 0 | 10 |  | 
18 | CC1CCN(CCCOc2ccc3c(c2)OCC3=O)CC(C)C1 (stereo not shown) [Compound 1194] | > 300 |  |  |  | 16 | 19 |  | 
19 | CC(=O)NC1CCN(CCCOc2ccc3c(c2)OCC3=O)CC1 [Compound 1302] | > 300 |  |  |  |  | 5 | 13 | 
20 | O=C1CCc2cc(OCCC[N+]34CN5CN(CN(C5)C3)C4)ccc21 [Compound 1400] | > 300 |  |  |  |  |  |  | 
21 | O=C1COc2cc(OCCC[n+]3ccc(-c4ccccc4)cc3)ccc21 [Compound 1404] | > 300 |  |  |  |  |  |  | 
